# Columns and labels:
# Assay type in all cases: cell-based
# [1] = system: bacteria (Escherichia coli, Staphylococcus aureus, Pseudomonas aeruginosa, and Salmonella enterica); assay: Antimicrobial performance of treated textiles against bacteria (Experimental Examples 1); settings: 6% o.w.f. of the chemical; for efficiency for killing bacteria: cotton textile treated with one single agent; for efficiency in killing bacteria: polyester textile treated with one single agent
# Experimental: (§1) All microbiological tests were performed with cultures of the bacteria Escherichia coli American Type Culture Collection (ATCC) 25922, Staphylococcus aureus ATCC 6538, Pseudomonas aeruginosa ATCC 15442, Salmonella enterica ATCC 10708, and of the fungi Candida albicans ATCC 10231, and Aspergillus Niger ATCC […].
# (§2) With Experimental Examples 1, the effect of the application of different numbers of agents to the starting textile materials was studied. The agents applied to the cotton material were taken from the group of silver, PHMB, and propiconazole, which are the three most preferred antimicrobial agents for treating cellulosic textile materials. The agents applied to the polyester material were taken from the group of silver, propiconazole, and quaternary ammonium organosilane compounds, which are the three most preferred antimicrobial agents for treating synthetic textile materials.
# (§3) The textiles were treated with (1) each of the agents from the respective group individually, (2) all three tuple combinations of agents from the respective groups, and (3) all three agents from the respective groups together. The total amount of the chemicals in all experiments was 6% o.w.f. Thus, where one single agent was applied to the textile, 6% o.w.f. of the respective chemical was used, where a combination of two agents was applied, 3% o.w.f. of each of the respective two chemicals was used, and where a combination of three agents was applied, 2% o.w.f. of each of the respective three chemicals was used.
# (§4) The finishing process was as described above in the context of the working examples, but since no hydrophilic/stain release agent was applied, there was only one process cycle. The fabric was exhausted and then dried and cured in one single pass through the stenter, with the process parameters as described above.
# [2] = system: fungi (Candida albicans and Aspergillus Niger); assay: Antimicrobial performance of treated textiles against fungi (Experimental Examples 1); settings: 6% o.w.f. of the chemical
# Experimental: as §1, §2, §3, §4
# microorganisms = assay: Tests made by the inventor on alternative metals and azoles adhered to textiles (results not reproduced)
# [3] = cotton textile treated with one single agent
# [4] = polyester textile treated with one single agent
Compound,efficiency for killing bacteria [1],efficiency in killing bacteria [1],"efficiency for killing fungi [2, 3]","efficiency for killing fungi [2, 4]",antimicrobial performance compared with zinc and copper (microorganisms)
silver,about equally efficient,about equally efficient,perform poorly,not efficient,"considerably higher than that of zinc, and even much higher than that of copper"
propiconazole [reference compound],not efficient,about as efficient against bacteria as silver and quaternary ammonium organosilane,efficient,works well,
CCCCCCCCCCCCCCCCCC[N+](C)(C)CCC[Si](OC)(OC)OC [Dimethyloctadecyl[3-(trimethoxysilyepropyl]ammonium chloride],,about equally efficient,,not efficient,
